Experimental data from patent US8247211B2, “Glycopeptide antibiotics” (American Cyanamid Company, priority 2001, dated 2012).
In brackets after ≈: the same amount, converted by molar mass.

Legend:
Assay in all cases: In vitro antibacterial evaluation: minimum inhibitory concentration (MIC), broth dilution method
Type in all cases: cell-based
Enterococcus sp. = details: 18 hours at 35° C.
Summary of the method: (§1)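 NCCLS M7-A2 broth dilution; Muller-Hinton II […]; 5×10^5 CFU/mL; 64-0.06 μg/mL. MIC = lowest concentration with no growth.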

Escherichia coli = details: 18 hours at 35° C.
Summary of the method: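 Inoculum: 5×10^5 CFU/mL. Range: 64-0.06 μg/mL. Medium: Muller-Hinton II […]; NCCLS M7-A2 broth dilution. Endpoint: lowest concentration inhibiting growth. Strains include methicillin-, penicillin- and/or vancomycin-resistant clinical isolates.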

Staphylococcus sp. = system: Staphylococcus sp.
Summary of the method: as §1

Streptococcus sp. = details: 18 hours at 35° C.
Summary of the method: as §1

[1] = broth dilution, inoculum 5×10^5 CFU/mL

For CC(c1ccccc1)C1NC(=O)CNC(=O)C(CO)NC(=O)C(C(O)C2CNC(=N)N2C2OC(CO)C(O)C(O)C2O)NC(=O)C(C(O)C2CNC(=N)N2)NC(=O)C(Cc2ccc(OC3OC(CO)C(OC4OC5COC6(CCC(C(C)(C)C)CC6)OC5C(O)C4O)C(O)C3O)cc2)NC1=O (stereo not drawn) [Example 208, Cyclo[glycyl-β-methylphenylalanyl-O-[4-O-[4,6-O-(4-tert, butylcyclohexylidene)hexopyranosyl]hexopyranosyl]tyrosyl-3-(2-iminoimidazolidin-4-yl)seryl-3-(3-hexopyranosyl-2-iminoimidazolidin-4-yl)serylseryl]], the “MIC Enterococcus avium (GC 4558)” value (Enterococcus sp.; Enterococcus avium (GC 4558)) was 4 µg/mL (≈ 2.79 µM), the “MIC Enterococcus faecalis (ATCC 29212)” value (Enterococcus sp.; Enterococcus faecalis (ATCC 29212)) was 8 µg/mL (≈ 5.59 µM) and the “MIC Enterococcus faecalis (GC 2242)” value (Enterococcus sp.; Enterococcus faecalis (GC 2242)) was 8 µg/mL (≈ 5.59 µM). For the same compound, the “MIC Enterococcus faecalis (GC 2691)” value (Enterococcus sp.; Enterococcus faecalis (GC 2691)) was 8 µg/mL (≈ 5.59 µM), the “MIC Enterococcus faecalis (GC 3059)” value (Enterococcus sp.; Enterococcus faecalis (GC 3059)) was 8 µg/mL (≈ 5.59 µM) and the “MIC Enterococcus faecalis (GC 4552)” value (Enterococcus sp.; Enterococcus faecalis (GC 4552)) was 8 µg/mL (≈ 5.59 µM). For the same compound, the “MIC Enterococcus faecalis (GC 4553)” value (Enterococcus sp.; Enterococcus faecalis (GC 4553)) was 8 µg/mL (≈ 5.59 µM), the “MIC Enterococcus faecalis (GC 4554)” value (Enterococcus sp.; Enterococcus faecalis (GC 4554)) was 8 µg/mL (≈ 5.59 µM) and the “MIC Enterococcus faecalis (GC 6189)” value (Enterococcus sp.; Enterococcus faecalis (GC 6189)) was 8 µg/mL (≈ 5.59 µM). The “MIC Enterococcus faecium (GC 2243)” value (Enterococcus sp.; Enterococcus faecium (GC 2243)) was 8 µg/mL (≈ 5.59 µM), the “MIC Enterococcus faecium (GC 4556)” value (Enterococcus sp.; Enterococcus faecium (GC 4556)) was 8 µg/mL (≈ 5.59 µM) and the “MIC Enterococcus faecium (GC 4557)” value (Enterococcus sp.; Enterococcus faecium (GC 4557)) was 8 µg/mL (≈ 5.59 µM). For the same compound, the “MIC Enterococcus avium (GC 4558)” value (Enterococcus sp.; [1]) was 4 µg/mL (≈ 2.79 µM), the “MIC Enterococcus faecalis (ATCC 29212)” value (Enterococcus sp.; [1]) was 8 µg/mL (≈ 5.59 µM) and the “MIC Enterococcus faecalis (GC 2242)” value (Enterococcus sp.; [1]) was 8 µg/mL (≈ 5.59 µM). For the same compound, the “MIC Enterococcus faecalis (GC 2691)” value (Enterococcus sp.; [1]) was 8 µg/mL (≈ 5.59 µM), the “MIC Enterococcus faecalis (GC 3059)” value (Enterococcus sp.; [1]) was 8 µg/mL (≈ 5.59 µM) and the “MIC Enterococcus faecalis (GC 4552)” value (Enterococcus sp.; [1]) was 8 µg/mL (≈ 5.59 µM). The “MIC Enterococcus faecalis (GC 4553)” value (Enterococcus sp.; [1]) was 8 µg/mL (≈ 5.59 µM), the “MIC Enterococcus faecalis (GC 4554)” value (Enterococcus sp.; [1]) was 8 µg/mL (≈ 5.59 µM) and the “MIC Enterococcus faecalis (GC 6189)” value (Enterococcus sp.; [1]) was 8 µg/mL (≈ 5.59 µM). The “MIC Enterococcus faecium (GC 2243)” value (Enterococcus sp.; [1]) was 8 µg/mL (≈ 5.59 µM), the “MIC Enterococcus faecium (GC 4556)” value (Enterococcus sp.; [1]) was 8 µg/mL (≈ 5.59 µM) and the “MIC Enterococcus faecium (GC 4557)” value (Enterococcus sp.; [1]) was 8 µg/mL (≈ 5.59 µM). For the same compound, the “MIC Escherichia coli (ATCC 25922)” value (Escherichia coli; Escherichia coli (ATCC 25922)) was 64 µg/mL (≈ 44.7 µM), the “MIC Escherichia coli (GC 4559)” value (Escherichia coli; Escherichia coli (GC 4559)) was greater than 64 µg/mL and the “MIC Escherichia coli (GC 4560)” value (Escherichia coli; Escherichia coli (GC 4560)) was 8 µg/mL (≈ 5.59 µM). For the same compound, the “MIC Staphylococcus aureus (ATCC 29213)” value (Staphylococcus sp.; strain ATCC 29213) was 4 µg/mL (≈ 2.79 µM), the “MIC Staphylococcus aureus (GC 1131)” value (Staphylococcus sp.; strain GC 1131) was 8 µg/mL (≈ 5.59 µM) and the “MIC Staphylococcus aureus (GC 3051)” value (Staphylococcus sp.; strain GC 3051) was 4 µg/mL (≈ 2.79 µM). For the same compound, the “MIC Staphylococcus aureus (GC 3053)” value (Staphylococcus sp.; strain GC 3053) was 4 µg/mL (≈ 2.79 µM), the “MIC Staphylococcus aureus (GC 4541)” value (Staphylococcus sp.; strain GC 4541) was 8 µg/mL (≈ 5.59 µM) and the “MIC Staphylococcus aureus (GC 4542)” value (Staphylococcus sp.; strain GC 4542) was 4 µg/mL (≈ 2.79 µM). The “MIC Staphylococcus aureus-SMITH (GC 4543)” value (Staphylococcus sp.; strain GC 4543) was 4 µg/mL (≈ 2.79 µM), the “MIC Staphylococcus aureus (GC 4544)” value (Staphylococcus sp.; strain GC 4544) was 8 µg/mL (≈ 5.59 µM) and the “MIC Staphylococcus aureus (GC 4545)” value (Staphylococcus sp.; strain GC 4545) was 4 µg/mL (≈ 2.79 µM). For the same compound, the “MIC Staphylococcus haemolyticus (GC 4546)” value (Staphylococcus sp.; strain GC 4546) was 4 µg/mL (≈ 2.79 µM), the “MIC Coagulase Negative Staphylococcus (GC 4547)” value (Staphylococcus sp.; strain GC 4547) was 4 µg/mL (≈ 2.79 µM) and the “MIC Coagulase Negative Staphylococcus (GC 4548)” value (Staphylococcus sp.; strain GC 4548) was 4 µg/mL (≈ 2.79 µM). For the same compound, the “MIC Coagulase Negative Staphylococcus (GC 4549)” value (Staphylococcus sp.; strain GC 4549) was 4 µg/mL (≈ 2.79 µM), the “MIC Coagulase Negative Staphylococcus (GC 4551)” value (Staphylococcus sp.; strain GC 4551) was 4 µg/mL (≈ 2.79 µM) and the “MIC Coagulase Negative Staphylococcus (GC 6257)” value (Staphylococcus sp.; strain GC 6257) was 4 µg/mL (≈ 2.79 µM). For the same compound, the “MIC Streptococcus agalactiae (GC 4564)” value (Streptococcus sp.; Streptococcus agalactiae (GC 4564)) was 0.12 µg/mL (≈ 0.0838 µM), the “MIC Streptococcus pneumoniae (ATCC 6301)” value (Streptococcus sp.; Streptococcus pneumoniae (ATCC 6301)) was less than 0.06 µg/mL and the “MIC Streptococcus pneumoniae (GC 1894)” value (Streptococcus sp.; Streptococcus pneumoniae (GC 1894)) was less than 0.06 µg/mL. The “MIC Streptococcus pneumoniae (GC 4565)” value (Streptococcus sp.; Streptococcus pneumoniae (GC 4565)) was less than 0.06 µg/mL, the “MIC Streptococcus pyogenes (GC 4563)” value (Streptococcus sp.; Streptococcus pyogenes (GC 4563)) was 0.12 µg/mL (≈ 0.0838 µM) and the “MIC Streptococcus agalactiae (GC 4564)” value (Streptococcus sp.; [1]) was 0.12 µg/mL (≈ 0.0838 µM). For the same compound, the “MIC Streptococcus pneumoniae (ATCC 6301)” value (Streptococcus sp.; [1]) was less than 0.06 µg/mL, the “MIC Streptococcus pneumoniae (GC 1894)” value (Streptococcus sp.; [1]) was less than 0.06 µg/mL and the “MIC Streptococcus pneumoniae (GC 4565)” value (Streptococcus sp.; [1]) was less than 0.06 µg/mL. For the same compound, the “MIC Streptococcus pyogenes (GC 4563)” value (Streptococcus sp.; [1]) was 0.12 µg/mL (≈ 0.0838 µM).
